Patent US7807719B2, “Compounds useful for modulating abnormal cell proliferation” (priority 2004, dated 2010)

Key:
Format in all cases: cell-based
[1] = tested on: Z119 cells; test: Killing of Philadelphia positive Z119 acute lymphoblastic leukemia cells in culture (colony assay); conditions: Z119 Philadelphia positive ALL cells, methylcellulose colony count at 7-9 days; read-out: ALL (Z 119) IC50
Method: Z119 cells were plated in 1 ml volumes at a density of 5×10^4 cells/ml, in the absence of exogenous growth factors, into 35 mm petri dishes (Nunc, Gibco) containing IMDM (OCI, Toronto) plus 20% FCS (Cansera Rexdale, ON.) in 0.9% (vol/vol) methylcellulose (Fluka, Switzerland) with the indicated concentration of for various test compounds described above. Cultures were set at 37° C., 5% CO2 in a humidified atmosphere. Colonies consisting of more than 20 cells were counted at 7-9 days using an inverted microscope.

[2] = tested on: normal bone marrow cells (BFU-E); test: Effect upon normal bone marrow differentiation in culture (CFU-GEMM assay, BFU-E colonies); conditions: Bone marrow cell, 336 h, BFU-E colonies evaluated at 14 days, read-out: NBM (BFU-E) IC50
Method: The CFU-GEMM assay was performed according to Fauser and Messner (1978, Blood, 52(6) 143-8) and Messner and Fausser (1980, Blut, 41(5) 327-33) with some variations. In brief, heparinized bone marrow cells were layered over Percoll (1.077 gm/ml) (Pharmacia Fine Chemical, Piscataway N.J.) and centrifuged at 400 g at 4° C. for 10 minutes to remove neutrophils and RBCs. The fractionated BM cells at 2×10^5 cells/ml were cultured in IMDM (OCI, Toronto) containing 0.9% (vol/vol) methylcellulose supplemented with 30% FCS (Cansera Rexdale, ON.) or normal human plasma, a cocktail of cytokines containing G-CSF (10 ng/ml, Amgen), IL-3 (40 U/ml, Immunex), MGF (50 ng/ml, Immunex), Erythropoietin (2 u/ml, Epprex) or TPO (10 ng/ml, Amgen), 5×10^−5 M β-2-mercaptoethanol and the specified concentration of CR4. The culture mixture was plated in 1 ml volumes into 35 mm petri dishes and incubated at 37° C., 5% CO2 in a humidified atmosphere. All cultures were evaluated at 14 days for the number of BFU-E colonies (defined as aggregates of more than 500 hemoglobinized cells or, 3 or more erythroid subcolonies), OFU-GM colonies (defined as granulocyte or monocyte-macrophage cells or both), CFU-Meg colonies (comprising 4 or more megakaryocytes) and CFU-GEMM colonies (a mixed population comprising of all elements).

[3] = tested on: OCI-AML-3 cells; test: Killing of AML-3 acute myeloid leukemia cells in culture (colony assay); conditions: Homo sapiens, methylcellulose colony count at 5-6 days
Method: OCI-AML-3 cells were plated in 35 mm petri dishes (Nunc, Gibco) in 1 ml volumes at a density of 3.3×10^3 cells/ml, in the absence of exogenous growth factors, containing alpha MEM plus 30% FCS (Cansera, Rexdale Ont.), and 0.9% (vol/vol) methylcellulose (Fluka, Switzerland) and the indicated concentrations of for various test compounds described above. Cell cultures were incubated in a humidified atmosphere at 37° C. with 5% CO2. Colonies containing more than 20 cells were scored, using an inverted microscope, at 5-6 days.

[4] = tested on: C1 cells; test: Killing of Philadelphia negative C1 acute lymphoblastic leukemia cells in culture (colony assay); conditions: C1 Philadelphia negative ALL cells, methylcellulose colony count in 5-7 days
Method: C1 (at 2×10^4 cells/ml) were plated in 1 ml volumes, in the absence of exogenous growth factors, into 35 mm Petri dishes (Nunc, Gibco) containing alpha MEM (Gibco) plus 10% FCS (Cansera Rexdale, Ont.) in 0.9% (vol/vol) methylcellulose (Fluka, Switzerland). Cultures were set up at 37° C. with 5% CO2 in a humidified atmosphere. Colonies consisting of more than 20 cells were counted in 5-7 days using an inverted microscope. For further information, see Leukemia, Vol. 6, No. 1, 1992, pg. 8-17 and Nature, Vol. 379, 15 Feb. 1996.

SMILES | IC50 [1] [nM] | IC50 [2] [nM] | IC50 [3] [nM] | IC50 [4] [nM]
N#C/C(=C\C(Cl)=C\c1ccccc1)C(=O)NCc1ccc(O)c(O)c1 [CRC-47, 4-chloro-2-cyano-5-phenyl-penta-2E,4Z-dienoic acid 3,4-dihydroxybenzylamide] | < 125 | < 5000 |  | 
N#C/C(=C\C=C\c1ccco1)C(=O)NCc1ccc(O)c(O)c1 [CRH-48, 2-cyano-5-furan-2-yl-penta-2E,4E-dienoic acid 3,4-dihydroxybenzylamide] | 250 to 500 | ≤ 10000 | 230 | ≥ 250
N#C/C(=C\C=C\c1cccnc1)C(=O)NCc1ccc(O)c(O)c1 [CRH-58, 2-cyano-5-pyridin-3-yl-penta-2E,4E-dienoic acid 3,4-dihydroxybenzylamide] | 260 | 7500 to 9800 | > 500 | > 500
N#C/C(=C\C=C\c1cccnc1)C(=O)NCc1ccccc1 [CRH-59, 2-cyano-5-pyridin-3-yl-penta-2E,4E-dienoic acid benzylamide] | > 1000 | > 10000 |  | 
N#C/C(=C\C=C\c1cccs1)C(=O)NCc1ccc(O)c(O)c1 [CRH-60, 2-cyano-5-thiophen-2-yl-penta-2E,4E-dienoic acid 3,4-dihydroxybenzylamide] | < 500 | 7100 |  | 
N#C/C(=C\C=C\c1cc(O)ccc1O)C(=O)NCc1ccccc1 [CRO-70, 2-Cyano-5-(2,5-dihydroxyphenyl)penta-2E,4E-dienoic acid benzylamide] | 260 | 6900 | > 500 | > 500
N#C/C(=C\c1ccc(/C=C/c2ccccc2)cc1)C(=O)NCc1ccncc1 [CRS-75, 2-cyano-N-pyridin-4-ylmethyl-3-(4-trans-styrylphenyl)-E-acrylamide] | > 1000 | > 10000 | ≥ 500 | ≥ 500
N#C/C(=C\c1ccc(/C=C/c2ccncc2)cc1)C(=O)NCc1ccc(O)c(O)c1 [CRS-76, 2-cyano-N-(3,4-dihydroxybenzyl)-3-[4-(2-pyridin-4-yl-trans-vinyl)-phenyl]-E-acrylamide] | > 1000 | > 10000 |  | 
N#C/C(=C\c1ccc(/C=C/c2ccncc2)cc1)C(=O)NCc1ccncc1 [CRS-77, 2-cyano-N-pyridin-4-ylmethyl-3-[4-(2-pyridin-4-yl-trans-vinyl)phenyl]-E-acrylamide] | > 1000 | > 10000 |  | 
COc1cc(/C=C/C=C/C=C(\C#N)C(=O)NCc2ccc(O)c(O)c2)ccc1O [CRT-67, 2-cyano-7-(4-hydroxy-3-methoxyphenyl)hepta-2E,4E,6E-trienoic acid 3,4-dihydroxybenzylamide] | ≤ 500 | 10200 | > 500 | > 500
N#C\C(=C/C=C/C=C/c1ccc(O)c(O)c1)C(=O)NCc1ccccc1 [CRT-88, 2-Cyano-7-(3,4-dihydroxyphenyl)hepta-2E,4E,6E-trienoic acid benzyl-amide] | < 500 | 3100 to 5400 |  | 
